Results on 4 compounds are retold here after US20230346961A1, “GLP-1 AND GIP RECEPTOR CO-AGONISTS” (Novo Nordisk A/S, priority 2020, published 2023).

Read-outs that look alike come from different tables or passages of the source. Starred links: 1 amine or outer side, 2 acyl side, 3 side chain; linkers in the order of their positions; H or OH if unused. Non-standard residues stand in square brackets, D forms with d. Residues, ends and D or L forms follow the SMILES beside them. Groups on a side chain read outwards from the residue. *: point of attachment. C20 diacid = O=C(O)CCCCCCCCCCCCCCCCCCC(=O)*; γGlu = O=C(O)[C@H](CCC(=O)[*:2])N[*:1]; εLys = N[C@@H](CCCCN[*:1])C(=O)[*:2]; Trx = NC[C@H]1CC[C@H](C(=O)O)CC1; Aib = CC(C)(N)C(=O)O

One data set addresses human GLP-1 receptor (Homo sapiens, UniProt P43220). The data set can be described thus: cell-based. The following applies: hGLP-1R.
A further data set concerns the target T1, mouse GLP-1 receptor (Mus musculus, UniProt O35659).
T1 sequence (O35659 22-463): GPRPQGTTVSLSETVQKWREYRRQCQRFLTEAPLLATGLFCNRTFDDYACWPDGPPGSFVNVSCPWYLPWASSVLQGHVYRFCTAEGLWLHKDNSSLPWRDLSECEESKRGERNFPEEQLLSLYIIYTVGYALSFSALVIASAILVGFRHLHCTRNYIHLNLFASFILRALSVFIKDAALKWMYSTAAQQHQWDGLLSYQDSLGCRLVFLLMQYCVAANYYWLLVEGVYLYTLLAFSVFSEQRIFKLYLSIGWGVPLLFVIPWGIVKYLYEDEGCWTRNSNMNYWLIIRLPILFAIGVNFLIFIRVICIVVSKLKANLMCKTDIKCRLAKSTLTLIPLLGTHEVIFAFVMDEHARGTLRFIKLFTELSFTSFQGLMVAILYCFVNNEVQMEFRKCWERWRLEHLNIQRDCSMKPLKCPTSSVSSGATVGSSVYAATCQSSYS

The target in the next data set is T2, mouse GIP receptor (Mus musculus, UniProt Q0P543).
T2 sequence (Q0P543 19-460): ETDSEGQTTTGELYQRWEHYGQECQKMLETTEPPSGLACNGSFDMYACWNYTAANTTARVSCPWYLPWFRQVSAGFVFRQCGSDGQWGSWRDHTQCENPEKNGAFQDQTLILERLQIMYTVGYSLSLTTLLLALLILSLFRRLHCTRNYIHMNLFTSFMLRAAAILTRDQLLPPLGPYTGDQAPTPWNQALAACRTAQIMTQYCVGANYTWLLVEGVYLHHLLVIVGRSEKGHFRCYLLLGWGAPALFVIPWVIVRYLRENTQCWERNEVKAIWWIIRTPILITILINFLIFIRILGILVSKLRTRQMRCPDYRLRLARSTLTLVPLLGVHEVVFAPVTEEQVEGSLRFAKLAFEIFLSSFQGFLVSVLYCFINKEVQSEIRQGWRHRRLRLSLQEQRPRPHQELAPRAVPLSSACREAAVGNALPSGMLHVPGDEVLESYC
Put plainly: cell-based.

Another data set deals with human glucagon receptor (Homo sapiens, UniProt P47871). Put plainly: cell-based.
Data set [1] is described as follows: Pharmacokinetic study in minipigs (terminal half-life after i.v. administration). It counts as in vivo. The note with it: female, Göttingen, minipig, iv. On the procedure:
The purpose of this example is to determine the half-life in vivo of the derivatives of the present invention after i.v. administration to minipigs, i.e. the prolongation of their time in the body and thereby their time of action. This is done in a pharmacokinetic (PK) study, where the terminal half-life of the derivative in question is determined. By terminal half-life is generally meant the period of time it takes to […] certain plasma concentration, measured after the initial distribution phase. Female Göttingen minipigs were obtained from Ellegaard Göttingen Minipigs (Dalmose, Denmark) approximately 7-14 months of age and weighing from approximately 16-35 kg were used in the studies. The minipigs were housed individually and fed restrictedly once daily with SDS minipig diet (Special Diets Services, Essex, UK). After at 3 weeks of acclimatisation two permanent central venous catheters were implanted in vena cava caudalis in each animal. The animals were allowed 1 week recovery after the surgery, and were then used for repeated pharmacokinetic studies with a suitable wash-out period between successive derivative dosing. The animals were fasted for approximately 18 hours before dosing and from 0 to 4 hours after dosing, but had adlibitum access to water during the whole period. […] Blood samples (for example 0.8 mL) were collected in 8 mM EDTA buffer and then centrifuged at 4° C. and 1942 g for 10 minutes. Plasma was pipetted into Micronic tubes on dry ice and kept at -20° C. until analysed for plasma concentration of the compounds using ELISA, or a similar antibody-based assay, or LCMS. […] (Pharsight Inc., Mountain View, CA, USA), and the resulting terminal half-lives (harmonic mean) determined.

Where [2] appears, read: in vivo, minipigs, i.v. administration, harmonic mean, read-out: Terminal half-life t1/2 (converted).

Sequence of human GLP-1 receptor (P43220 24-463): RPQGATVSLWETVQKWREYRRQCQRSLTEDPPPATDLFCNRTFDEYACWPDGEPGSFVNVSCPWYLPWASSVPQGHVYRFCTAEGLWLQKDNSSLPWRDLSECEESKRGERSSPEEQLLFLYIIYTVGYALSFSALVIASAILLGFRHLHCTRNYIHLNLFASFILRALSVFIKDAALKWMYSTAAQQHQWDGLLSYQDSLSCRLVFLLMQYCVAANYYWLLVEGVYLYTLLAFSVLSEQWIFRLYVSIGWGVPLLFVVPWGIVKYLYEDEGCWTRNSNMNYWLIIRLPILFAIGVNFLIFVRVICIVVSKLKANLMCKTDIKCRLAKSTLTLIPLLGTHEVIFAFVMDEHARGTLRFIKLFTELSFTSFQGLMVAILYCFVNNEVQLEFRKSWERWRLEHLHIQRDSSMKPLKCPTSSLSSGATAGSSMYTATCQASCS
Sequence of human glucagon receptor (P47871 26-477): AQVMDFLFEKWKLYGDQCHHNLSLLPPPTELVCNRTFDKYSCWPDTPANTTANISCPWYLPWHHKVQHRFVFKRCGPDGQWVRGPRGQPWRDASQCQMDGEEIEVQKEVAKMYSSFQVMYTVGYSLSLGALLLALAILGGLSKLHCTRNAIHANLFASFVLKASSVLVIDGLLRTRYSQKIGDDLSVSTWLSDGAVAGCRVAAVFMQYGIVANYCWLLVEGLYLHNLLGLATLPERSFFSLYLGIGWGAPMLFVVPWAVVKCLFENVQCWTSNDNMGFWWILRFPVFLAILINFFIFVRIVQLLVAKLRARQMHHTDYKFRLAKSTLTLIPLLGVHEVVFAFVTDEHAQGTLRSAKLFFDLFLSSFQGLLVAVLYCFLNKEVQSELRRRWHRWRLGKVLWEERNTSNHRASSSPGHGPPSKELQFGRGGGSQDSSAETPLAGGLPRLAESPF
Description for mouse GIP receptor: The in vitro functional potency is the measure of target receptor activation in a whole cell assay.
In vitro functional potency was determined by measuring the response of the target receptor in a reporter gene assay in individual cell lines. […] When the respective receptor is activated, it results in the production of cAMP, which in turn results in expression of the luciferase protein. When assay incubation is completed, luciferase substrate (luciferin) is added resulting in the enzymatic conversion of luciferin to oxyluciferin and producing bioluminescence. The luminescence is measured as the readout for the assay.
The cells lines used in these assays were BHK cells with BHKTS13 as a parent cell line. The cell lines were derived from a clone containing the CRE luciferase element and were established by further transfection with the respective receptor to obtain the relevant cell line.
The cells were cultured at 37° C. with 5% CO2 in Cell Culture Medium. They were aliquoted and stored in liquid nitrogen. The cells were kept in continuous culture and were seeded out the day before each assay.
GLP-1R and GcgR Cell Culture Medium consisted of DMEM medium with 10% FBS, 500 μg/mL G418, and 300 μg/mL hygromycin. GIPR Cell Culture Medium consisted of DMEM medium with 10% FBS, 400 μg/mL G418, and 300 μg/mL hygromycin. Assay Buffer consisted of DMEM w/o phenol red, 10 mM Hepes, 1×Glutamax, 1% ovalbumin, and 0.1% Pluronic F-68 with the addition of HSA at twice the final assay concentration.
• 1) Cells were plated at 5000 cells/well and incubated overnight in the assay plate. • 2) Cells were washed once in DPBS. • 3) Stocks of the test compounds and reference compounds in concentrations ranging from 100-300 μM were diluted 1:150 in Assay Buffer. Compounds were then diluted 1:10 in column 1 of a 96 deep well dilution plate and then carried across the row creating a 3.5 fold, 12 point dilution curve. • 4) Assay Buffer (50 μl aliquot) with or without HSA was added to each well in the assay plate. • 5) A 50 μl aliquot of compound or blank was transferred from the dilution plate to the assay plate containing the Assay Buffer with or without HSA. • 6) The assay plate was incubated for 3 h in a 5% CO2 incubator at 37° C. 7) The cells were washed once with DPBS. • 8) A 100 μl aliquot of DPBS was added to each well of the assay plate. • 9) A 100 μl aliquot of steadylite plus reagent (light sensitive) was added to each well of the assay plate. • 10) Each assay plate was covered with aluminum foil to protect it from light and shaken at 250 RPM for 30 min at room temperature. • 11) Each assay plate was read in a microtiter plate reader.
The data from the microtiter plate reader was first regressed in an Excel in order to calculate the x-axis, log scale concentrations based on the individual test compound's stock concentration and the dilutions of the assay. […] The software performs a non-linear regression (log(agonist) vs response). A minimum of two replicates was measured for each sample. The reported values are averages of the replicates.

`CC[C@H](C)[C@H](NC(=O)[C@H](CO)NC(=O)[C@H](Cc1ccc(O)cc1)NC(=O)[C@H](CC(=O)O)NC(=O)[C@H](CO)NC(=O)[C@@H](NC(=O)[C@H](Cc1ccccc1)NC(=O)[C@@H](NC(=O)CNC(=O)[C@H](CCC(=O)O)NC(=O)C(C)(C)NC(=O)[C@@H](N)Cc1ccc(O)cc1)[C@@H](C)O)[C@@H](C)O)C(=O)N[C@@H](Cc1ccc(O)cc1)C(=O)N[C@@H](CC(C)C)C(=O)N[C@@H](CCC(=O)O)C(=O)N[C@@H](CCC(=O)O)C(=O)N[C@@H](CCC(N)=O)C(=O)N[C@@H](C)C(=O)N[C@@H](C)C(=O)NC(C)(C)C(=O)N[C@@H](CCCCNC(=O)[C@@H](N)CCCCNC(=O)[C@@H](N)CCCCNC(=O)CC[C@H](NC(=O)[C@H]1CC[C@H](CNC(=O)CCCCCCCCCCCCCCCCCCC(=O)O)CC1)C(=O)O)C(=O)N[C@@H](Cc1ccccc1)C(=O)N[C@H](C(=O)N[C@@H](CC(N)=O)C(=O)N[C@@H](Cc1c[nH]c2ccccc12)C(=O)N[C@@H](CC(C)C)C(=O)N[C@@H](CC(C)C)C(=O)N[C@@H](C)C(=O)NCC(=O)NCC(=O)N1CCC[C@H]1C(=O)N[C@@H](CO)C(=O)N[C@@H](CO)C(=O)NCC(=O)N[C@@H](C)C(=O)N1CCC[C@H]1C(=O)N1CCC[C@H]1C(=O)N1CCC[C@H]1C(=O)N[C@@H](CO)C(N)=O)C(C)C` [Compound 19] (H-Y[Aib]EGTFTSDYSIYLEEQAA[Aib]K([εLys-εLys-γGlu-Trx-C20 diacid])FVNWLLAGGPSSGAPPPS-NH2; N-terminus assumed): the concentration giving a half-maximal response (EC50) was 0.0046 nM on human GLP-1 receptor (CRE Luc 0% HSA EC50, 0% HSA); 0.297 nM on human GLP-1 receptor (CRE Luc 1% HSA EC50, 1% HSA); 0.0055 nM at mouse GLP-1 receptor; 0.134 nM on mouse GIP receptor; over 10 nM at human glucagon receptor. In data set [1] (setting [2]), the half-life is 112 h.
Take `CC[C@H](C)[C@H](NC(=O)[C@H](CO)NC(=O)[C@H](Cc1ccc(O)cc1)NC(=O)[C@H](CC(=O)O)NC(=O)[C@H](CO)NC(=O)[C@@H](NC(=O)[C@H](Cc1ccccc1)NC(=O)[C@@H](NC(=O)CNC(=O)[C@H](CCC(=O)O)NC(=O)C(C)(C)NC(=O)[C@@H](N)Cc1ccc(O)cc1)[C@@H](C)O)[C@@H](C)O)C(=O)N[C@@H](Cc1ccc(O)cc1)C(=O)N[C@@H](CC(C)C)C(=O)N[C@@H](CCC(=O)O)C(=O)N[C@@H](CCCCNC(=O)[C@@H](N)CCCCNC(=O)[C@@H](N)CCCCNC(=O)CC[C@H](NC(=O)[C@H]1CC[C@H](CNC(=O)CCCCCCCCCCCCCCCCCCC(=O)O)CC1)C(=O)O)C(=O)N[C@@H](CCC(N)=O)C(=O)N[C@@H](C)C(=O)N[C@@H](C)C(=O)NC(C)(C)C(=O)N[C@@H](CCC(=O)O)C(=O)N[C@@H](Cc1ccccc1)C(=O)N[C@H](C(=O)N[C@@H](CC(N)=O)C(=O)N[C@@H](Cc1c[nH]c2ccccc12)C(=O)N[C@@H](CC(C)C)C(=O)N[C@@H](CC(C)C)C(=O)N[C@@H](C)C(=O)NCC(=O)NCC(=O)N1CCC[C@H]1C(=O)N[C@@H](CO)C(=O)N[C@@H](CO)C(=O)NCC(=O)N[C@@H](C)C(=O)N1CCC[C@H]1C(=O)N1CCC[C@H]1C(=O)N1CCC[C@H]1C(=O)N[C@@H](CO)C(N)=O)C(C)C` [Compound 20] (H-Y[Aib]EGTFTSDYSIYLEK([εLys-εLys-γGlu-Trx-C20 diacid])QAA[Aib]EFVNWLLAGGPSSGAPPPS-NH2; N-terminus assumed): the EC50 at human GLP-1 receptor (CRE Luc 0% HSA EC50, 0% HSA) was 0.0033 nM; at human GLP-1 receptor (CRE Luc 1% HSA EC50, 1% HSA), 0.261 nM; on mouse GLP-1 receptor it was 0.0026 nM; at mouse GIP receptor it was 0.012 nM; at human glucagon receptor, over 10 nM. Besides, the half-life in data set [1] (setting [2]) is 88 h.
As to `CC[C@H](C)[C@H](NC(=O)[C@H](CO)NC(=O)[C@H](Cc1ccc(O)cc1)NC(=O)[C@H](CC(=O)O)NC(=O)[C@H](CO)NC(=O)[C@@H](NC(=O)[C@H](Cc1ccccc1)NC(=O)[C@@H](NC(=O)CNC(=O)[C@H](CCC(=O)O)NC(=O)C(C)(C)NC(=O)[C@@H](N)Cc1ccc(O)cc1)[C@@H](C)O)[C@@H](C)O)C(=O)N[C@@H](Cc1ccc(O)cc1)C(=O)N[C@@H](CC(C)C)C(=O)N[C@@H](CCC(=O)O)C(=O)N[C@@H](CCC(=O)O)C(=O)N[C@@H](CCC(N)=O)C(=O)N[C@@H](C)C(=O)N[C@@H](C)C(=O)NC(C)(C)C(=O)N[C@@H](CCCCNC(=O)[C@@H](N)CCCCNC(=O)[C@@H](N)CCCCNC(=O)CC[C@H](NC(=O)CCCCCCCCCCCCCCCCCCC(=O)O)C(=O)O)C(=O)N[C@@H](Cc1ccccc1)C(=O)N[C@H](C(=O)N[C@@H](CC(N)=O)C(=O)N[C@@H](Cc1c[nH]c2ccccc12)C(=O)N[C@@H](CC(C)C)C(=O)N[C@@H](CC(C)C)C(=O)N[C@@H](C)C(=O)NCC(=O)NCC(=O)N1CCC[C@H]1C(=O)N[C@@H](CO)C(=O)N[C@@H](CO)C(=O)NCC(=O)N[C@@H](C)C(=O)N1CCC[C@H]1C(=O)N1CCC[C@H]1C(=O)N1CCC[C@H]1C(=O)N[C@@H](CO)C(N)=O)C(C)C` [Compound 27] (H-Y[Aib]EGTFTSDYSIYLEEQAA[Aib]K([εLys-εLys-γGlu-C20 diacid])FVNWLLAGGPSSGAPPPS-NH2; N-terminus assumed), the EC50 at human GLP-1 receptor (CRE Luc 0% HSA EC50, 0% HSA) was found to be 0.0033 nM; on human GLP-1 receptor (CRE Luc 1% HSA EC50, 1% HSA), 0.195 nM; at mouse GLP-1 receptor it was 0.0042 nM; at mouse GIP receptor it was 0.545 nM. Moreover, the half-life in data set [1] (in vivo) was 88 h.
Take `CC[C@H](C)[C@H](NC(=O)[C@H](CO)NC(=O)[C@H](Cc1ccc(O)cc1)NC(=O)[C@H](CC(=O)O)NC(=O)[C@H](CO)NC(=O)[C@@H](NC(=O)[C@H](Cc1ccccc1)NC(=O)[C@@H](NC(=O)CNC(=O)[C@H](CCC(=O)O)NC(=O)C(C)(C)NC(=O)[C@@H](N)Cc1ccc(O)cc1)[C@@H](C)O)[C@@H](C)O)C(=O)N[C@@H](Cc1ccc(O)cc1)C(=O)N[C@@H](CC(C)C)C(=O)N[C@@H](CCC(=O)O)C(=O)N[C@@H](CCCCN)C(=O)N[C@@H](CCCCNC(=O)[C@@H](N)CCCCNC(=O)[C@@H](N)CCCCNC(=O)CC[C@H](NC(=O)CCCCCCCCCCCCCCCCCCC(=O)O)C(=O)O)C(=O)N[C@@H](C)C(=O)N[C@@H](C)C(=O)NC(C)(C)C(=O)N[C@@H](CCC(=O)O)C(=O)N[C@@H](Cc1ccccc1)C(=O)N[C@H](C(=O)N[C@@H](CCC(N)=O)C(=O)N[C@@H](Cc1c[nH]c2ccccc12)C(=O)N[C@@H](CC(C)C)C(=O)N[C@@H](CC(C)C)C(=O)N[C@@H](CCC(=O)O)C(=O)NCC(=O)NCC(=O)N1CCC[C@H]1C(=O)N[C@@H](CO)C(=O)N[C@@H](CO)C(=O)NCC(=O)N[C@@H](C)C(=O)N1CCC[C@H]1C(=O)N1CCC[C@H]1C(=O)N1CCC[C@H]1C(=O)N[C@@H](CO)C(N)=O)C(C)C` [Compound 35] (H-Y[Aib]EGTFTSDYSIYLEKK([εLys-εLys-γGlu-C20 diacid])AA[Aib]EFVQWLLEGGPSSGAPPPS-NH2; N-terminus assumed): the EC50 at human GLP-1 receptor (CRE Luc 0% HSA EC50, 0% HSA) came out at 0.0022 nM; at human GLP-1 receptor (CRE Luc 1% HSA EC50, 1% HSA), 0.169 nM; on mouse GLP-1 receptor, 0.0013 nM; on mouse GIP receptor it was 0.0213 nM. Besides, the half-life in data set [1] (plasma, minipigs, i.v. administration, harmonic mean, read-out: Terminal half-life t1/2 (converted)) was 90 h.

One may read the EC50 as the concentration needed to bring the measured effect to its halfway point.
